The values below come from PMC4419590 (ChemMedChem, 2014).

Molecules are shown by their SMILES.

The EC50 is the concentration giving half of the maximal effect. For orientation: Papp means a coefficient for how fast a substance crosses the barrier. By CC50 is commonly meant the concentration at which the toxic effect on the cells reaches its halfway point.

One data set relates to HIV-1MDR/TM(X4). Briefly: microbe, parasite or virus in culture. The data set is classed as cell-based. As to conditions: for fold change of EC50 compared to wild-type HIV-1ERS104pre: number in parentheses.
Another data set concerns HIV-1MDR/B(X4). Briefly: microbe, parasite or virus in culture. The data set is classed as cell-based. As to conditions: for fold change of EC50 compared to wild-type HIV-1ERS104pre: number in parentheses.
The next data set concerns HIV-1MDR/JSL(R5). Briefly: microbe, parasite or virus in culture. The data set is classed as cell-based. As to conditions: for fold change of EC50 compared to wild-type HIV-1ERS104pre: number in parentheses.
In a further data set the test system is HIV-1MDR/G(X4). The experiment in a line: microbe, parasite or virus in culture. The data set is classed as cell-based. The conditions noted are these: for fold change of EC50 compared to wild-type HIV-1ERS104pre: number in parentheses.
For data set [1], the system named is panel of six multidrug resistant clinical HIV-1 variants. Briefly: microbe, parasite or virus in culture. The data set is classed as cell-based. The conditions noted are these: Human immunodeficiency virus 1, read-out: EC50 range across the panel.
The next data set deals with HIV-1MDR/MM(R5). Briefly: microbe, parasite or virus in culture. The data set is classed as cell-based. As to conditions: for fold change of EC50 compared to wild-type HIV-1ERS104pre: number in parentheses.
A further data set has as its system HIV-1MDR/C(X4). The experiment in a line: microbe, parasite or virus in culture. As to conditions: for fold change of EC50 compared to wild-type HIV-1ERS104pre: number in parentheses. It is filed as cell-based.
Data set [2] can be described thus: In vitro blood-brain-barrier model, triple co-culture drug transport assay. As to conditions: rat, monkey.
The next data set has as its system HIV-1LAI. Briefly: Antiviral activity in MT-2 cells exposed to HIV-1LAI, MTT assay. The data set is classed as cell-based. A general note: Tetrazolium dyes change colour on reduction, which living cells bring about.
The test system of data set [3] is HIV-1ERS104pre (wild-type X4). Briefly: Antiviral activity in PHA-PBMs, p24 Gag production, wild-type clinical isolate. The data set is classed as cell-based.
Data set [4] concerns MT-2 human T-lymphoid cells.
The test system of data set [5] is in vitro BBB model (rat astrocytes, pericytes and monkey endothelial cells).
[6] abbreviates: Human immunodeficiency virus 1, T-lymphoid, in Homo sapiens.
[7] abbreviates: PHA-PBMs, p24 Gag production, mean ± 1 SD.

Consider `CC(C)CN(C[C@@H](O)[C@H](Cc1ccccc1)NC(=O)O[C@H]1CCOC1)S(=O)(=O)c1ccc(N)cc1` [APV, amprenavir, reference compound], for which the “fold change of EC50 compared to wild-type HIV-1ERS104pre” value (shortened to “fold change of EC50”) was 12 in the data set on HIV-1MDR/TM(X4); 15 in the data set with HIV-1MDR/B(X4); 9 in the data set on HIV-1MDR/JSL(R5); 11 in the data set with HIV-1MDR/G(X4); 22 with HIV-1MDR/MM(R5); 7 in the data set with HIV-1MDR/C(X4). Besides, the EC50 in the data set with HIV-1MDR/B(X4) (Human immunodeficiency virus 1) was 490 ± 50 nM; in the data set with HIV-1MDR/JSL(R5) (Human immunodeficiency virus 1) it was 270 ± 10 nM; with HIV-1MDR/G(X4) (Human immunodeficiency virus 1) it was 310 ± 80 nM; in data set [1], 210 to 630 nM; in the data set with HIV-1MDR/MM(R5) (Human immunodeficiency virus 1), 630 ± 9 nM; in the data set with HIV-1MDR/C(X4) (Human immunodeficiency virus 1), 210 ± 20 nM.
As to `CC(C)CN(C[C@@H](O)[C@H](Cc1ccccc1)NC(=O)O[C@H]1CO[C@H]2OCC[C@H]21)S(=O)(=O)c1ccc(N)cc1` [Darunavir, darunavir, reference compound], in data set [2], the Papp at 30 min, 100 μM was 9.32 ± 2.25 ×10⁻⁶ cm/s. For the same compound, the EC50 worked out at 30 ± 10 nM in the data set on HIV-1MDR/TM(X4) (Human immunodeficiency virus 1); 5 nM in the data set with HIV-1LAI (setting [6]); 10 ± 1 nM in the data set on HIV-1MDR/JSL(R5) (Human immunodeficiency virus 1); 14 ± 9 nM with HIV-1MDR/G(X4) (Human immunodeficiency virus 1); 25 ± 2 nM in the data set with HIV-1MDR/MM(R5) (Human immunodeficiency virus 1); 4 ± 1 nM in data set [3] (Human immunodeficiency virus 1). In the data set with HIV-1MDR/C(X4) (Human immunodeficiency virus 1), this compound returned an EC50 of 5 ± 1 nM.
Turning to `COc1ccc(S(=O)(=O)N(CC(C)C)C[C@@H](O)[C@H](Cc2ccccc2)NC(=O)OC2CO[C@H]3OCC(F)(F)[C@@H]23)cc1` (stereo partly drawn) [Inhibitor 3], it took 17500 nM to reach half-maximal cytotoxicity in data set [4] (CC50). The EC50 in the data set with HIV-1MDR/TM(X4) (setting [7]) worked out at 4 ± 1 nM; in the data set with HIV-1MDR/B(X4) (setting [7]) it was 14 ± 1 nM; with HIV-1MDR/JSL(R5) (setting [7]) it was 2 ± 1 nM; in the data set with HIV-1MDR/G(X4) (setting [7]), 4 ± 1 nM; in the data set on HIV-1MDR/MM(R5) (setting [7]) it was 21 ± 4 nM; in data set [3] (setting [7]), 2.3 ± 0.1 nM. The EC50 with HIV-1MDR/C(X4) (setting [7]) came out at 2 ± 1 nM. Also, the “fold change of EC50” value with HIV-1MDR/TM(X4) is 2; in the data set with HIV-1MDR/B(X4) it was 7; in the data set on HIV-1MDR/JSL(R5) it was 1; with HIV-1MDR/G(X4), 2; with HIV-1MDR/MM(R5), 10; in the data set with HIV-1MDR/C(X4) it was 1. Further, the “Papp (apparent permeability coefficient)” value in data set [5] is listed as 50.38 ± 10.61 10^−6 cm/s.
In data set [4], `CC(C)CN(C[C@@H](O)[C@H](Cc1ccccc1)NC(=O)O[C@H]1CO[C@H]2OCC(F)(F)[C@H]21)S(=O)(=O)c1ccc(N)cc1` [Inhibitor 4] had a CC50 of 37000 nM. Further, the EC50 came to 4 ± 1 nM with HIV-1MDR/TM(X4) (setting [7]); 11 ± 1 nM in the data set on HIV-1MDR/B(X4) (setting [7]); 3 nM with HIV-1LAI (MT-2 human T-lymphoid cells exposed to HIVLAI); 4 ± 1 nM in the data set on HIV-1MDR/G(X4) (setting [7]); 20 ± 0.2 nM with HIV-1MDR/MM(R5) (setting [7]); 2.7 ± 0.3 nM in data set [3] (setting [7]). This compound also returned an EC50 in the data set on HIV-1MDR/C(X4) (setting [7]) of 2 ± 1 nM. The “fold change of EC50” value with HIV-1MDR/TM(X4) is listed as 2; in the data set on HIV-1MDR/B(X4) it was 3; in the data set with HIV-1MDR/JSL(R5), 1; in the data set on HIV-1MDR/G(X4) it was 1; in the data set on HIV-1MDR/MM(R5), 7; in the data set on HIV-1MDR/C(X4), 1. In addition, in [5], the “Papp (apparent permeability coefficient)” value is reported as 60.84 ± 3.97 10^−6 cm/s.
Compound `CC(C)(C)NC(=O)[C@@H]1C[C@@H]2CCCC[C@@H]2CN1C[C@@H](O)[C@H](Cc1ccccc1)NC(=O)[C@H](CC(N)=O)NC(=O)c1ccc2ccccc2n1` [saquinavir] displayed an EC50 in the data set on HIV-1LAI (setting [6]) of 21 nM.
